# Results published in patent publication US20230011869A1 (Hoffmann-La Roche Inc., priority 2018, published 2023).
# Counter-ions that a name gives are not always drawn.
# System: Acinetobacter baumannii ATCC17978
# Assay: Antimicrobial susceptibility testing: 90% growth inhibitory concentration (IC90) determination, Iso-Sensitest broth
# Assay type: cell-based
# Details: 90% growth inhibitory concentration, Acinetobacter baumannii ATCC17978, Iso-Sensitest broth, OD 600 nm over 16 h; read-out: ATCC17978 IC90
# Procedure, shortened: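 A. baumannii ATCC17978 grown in Iso-Sensitest broth across 10 compound concentrations at 35±2 °C.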
row,IC90 [nM],SMILES
1,96,"COc1ccc(-c2cnc3c(Nc4ccc(C(=O)N5CCN(C(=O)[C@@H]6C[C@@H](O)CN6)CC5)c(C)c4)nccn23)c(F)c1F [Example 471, [4-[[3-(2,3-difluoro-4-methoxyphenyl)imidazo[1,2-a]pyrazin-8-yl]amino]-2-methylphenyl]-[4-[(2S,4R)-4-hydroxypyrrolidine-2-carbonyl]piperazin-1-yl]methanone]"
2,150,"Cc1cc(Nc2nccn3c(-c4ccc(OCC#N)c(F)c4F)cnc23)ccc1C(=O)N1CCN(C(=O)C2(F)CCNCC2)CC1 [Example 481, 2-[2,3-difluoro-4-[8-[4-[4-(4-fluoropiperidine-4-carbonyl)piperazine-1-carbonyl]-3-methylanilino]imidazo[1,2-a]pyrazin-3-yl]phenoxy]acetonitrile; for-mic acid]"
3,180,"COc1ccc(-c2cnc3c(Nc4ccc(C(=O)N5CCN(C(=O)N6CCO[C@@H](CN)C6)CC5)c(C)c4)nccn23)c(Cl)c1F [Example 484, [4-[(2S)-2-(aminomethyl)morpholine-4-carbonyl]piperazin-1-yl]-[4-[[3-(2-chloro-3-fluoro-4-methoxyphenyl)imidazo[1,2-a]pyrazin-8-yl]amino]-2-methylphenyl]methanone; for-mic acid]"
4,190,"COc1ccc(-c2cnc3c(Nc4ccc(C(=O)N5CCN(C(=O)C6CCNCC6)CC5)c(C)c4)nccn23)c(F)c1F [Example 485, [4-[[3-(2,3-difluoro-4-methoxyphenyl)imidazo[1,2-a]pyrazin-8-yl]amino]-2-methylphenyl]-[4-(piperidine-4-carbonyl)piperazin-1-yl]methanone; hydrochloride]"
5,310,"Cc1cc(Nc2nccn3c(-c4ccc(OCC#N)c(F)c4F)cnc23)ccc1C(=O)N1CCC(C(=O)N2CCNC[C@H]2CO)CC1 [Example 492, 2-[2,3-difluoro-4-[8-[4-[4-[(2S)-2-(hydroxymethyl)piperazine-1-carbonyl]piperidine-1-carbonyl]-3-methylanilino]imidazo[1,2-a]pyrazin-3-yl]phenoxy]acetonitrile; for-mic acid]"

# Same assay, conditions: Acinetobacter baumannii, ATCC17978, 16 h, read-out: ATCC17978 IC90, 90% growth inhibitory concentration, Acinetobacter baumannii ATCC17978, Iso-Sensitest broth, OD 600 nm over 16 h
row,SMILES,IC90 [nM]
1,"Cc1cc(Nc2nccn3c(-c4ccc(OCC#N)c(F)c4Cl)cnc23)ccc1C(=O)N1CCC(C(=O)OC[C@@H]2CNCCN2)CC1 [Example 470, formic acid; [(2S)-piperazin-2-yl]methyl 1-[4-[[3-[2-chloro-4-(cyanomethoxy)-3-fluorophenyl]imidazo[1,2-a]pyrazin-8-yl]amino]-2-methylbenzoyl]piperidine-4-carboxylate]",92
2,"Cc1cc(Nc2nccn3c(-c4ccc(OCC#N)c(F)c4F)cnc23)ccc1C(=O)N1CCC(C(=O)OC[C@@H]2CNCCN2)CC1 [Example 473, formic acid; [(2S)-piperazin-2-yl]methyl 1-[4-[[3-[4-(cyanomethoxy)-2,3-difluorophenyl]imidazo[1,2-a]pyrazin-8-yl]amino]-2-methylbenzoyl]piperidine-4-carboxylate]",300
3,"COc1ccc(-c2cnc3c(Nc4ccc(C(=O)N5CCN(C(=O)[C@@H]6CCNC6)CC5)c(C)c4)nccn23)c(Cl)c1F [Example 474, [4-[[3-(2-chloro-3-fluoro-4-methoxyphenyl)imidazo[1,2-a]pyrazin-8-yl]amino]-2-methylphenyl]-[4-[(3R)-pyrrolidine-3-carbonyl]piperazin-1-yl]methanone; formic acid]",94
4,"COc1ccc(-c2cnc3c(Nc4ccc(C(=O)N5CCN(C(=O)NCCN)CC5)c(C)c4)nccn23)c(F)c1F [Example 475, N-(2-aminoethyl)-4-[4-[[3-(2,3-difluoro-4-methoxyphenyl)imidazo[1,2-a]pyrazin-8-yl]amino]-2-methylbenzoyl]piperazine-1-carboxamide; formic acid]",97
5,"COc1ccc(-c2cnc3c(Nc4ccc(C(=O)N5CCN(C(=O)[C@@H]6C[C@@H](O)CN6)CC5)c(C)c4)nccn23)c(Cl)c1F [Example 476, [4-[[3-(2-chloro-3-fluoro-4-methoxyphenyl)imidazo[1,2-a]pyrazin-8-yl]amino]-2-methylphenyl]-[4-[(2S,4R)-4-hydroxypyrrolidine-2-carbonyl]piperazin-1-yl]methanone; formic acid]",100
6,"COc1ccc(-c2cnc3c(Nc4ccc(C(=O)N5CCN(C(=O)C6(F)CCNCC6)CC5)c(C)c4)nccn23)c(F)c1F [Example 477, [4-[[3-(2,3-difluoro-4-methoxyphenyl)imidazo[1,2-a]pyrazin-8-yl]amino]-2-methylphenyl]-[4-(4-fluoropiperidine-4-carbonyl)piperazin-1-yl]methanone; hydrochloride]",120
7,"COc1ccc(-c2cnc3c(Nc4ccc(C(=O)N5CCN(C(=O)N[C@@H](C)CN)CC5)c(C)c4)nccn23)c(Cl)c1F [Example 478, formic acid]",130
8,"COc1ccc(-c2cnc3c(Nc4ccc(C(=O)N5CCN(C(=O)C6CCNCC6)CC5)c(C)c4)nccn23)c(Cl)c1F [Example 479, [4-[[3-(2-chloro-3-fluoro-4-methoxyphenyl)imidazo[1,2-a]pyrazin-8-yl]amino]-2-methylphenyl]-[4-(piperidine-4-carbonyl)piperazin-1-yl]methanone; formic acid]",130
9,"COc1ccc(-c2cnc3c(Nc4ccc(C(=O)N5CCN(C(=O)N6CCNCC6)CC5)c(C)c4)nccn23)c(F)c1F [Example 480, [4-[[3-(2,3-difluoro-4-methoxyphenyl)imidazo[1,2-a]pyrazin-8-yl]amino]-2-methylphenyl]-[4-(piperazine-1-carbonyl)piperazin-1-yl]methanone; formic acid]",140
10,"Cc1cc(Nc2nccn3c(-c4ccc(OC(F)F)cc4)cnc23)ccc1C(=O)N1CCN(C(=O)N[C@H](C)CN)CC1 [Example 482, N-[(2R)-1-aminopropan-2-yl]-4-[4-[[3-[4-(difluoromethoxy)phenyl]imi-dazo[1,2-a]pyrazin-8-yl]amino]-2-methylbenzoyl]piperazine-1-carboxamide; hydrochlroide]",170
11,"COc1ccc(-c2cnc3c(Nc4ccc(C(=O)N5CCN(C(=O)[C@@H]6CCNC6)CC5)c(C)c4)nccn23)cc1F [Example 483, [4-[[3-(3-fluoro-4-methoxyphenyl)imidazo[1,2-a]pyrazin-8-yl]amino]-2-methylphenyl]-[4-[(3R)-pyrrolidine-3-carbonyl]piperazin-1-yl]methanone; hydrochloride]",180
12,"Cc1cc(Nc2nccn3c(-c4ccc(OC(F)F)cc4)cnc23)ccc1C(=O)N1CCN(C(=O)[C@@H]2CCNC2)CC1 [Example 486, [4-[[3-[4-(difluoromethoxy)phenyl]imi-dazo[1,2-a]pyrazin-8-yl]amino]-2-methylphenyl]-[4-[(3R)-pyrrolidine-3-carbonyl]piperazin-1-yl]methanone; hydrochloride]",190
13,"Cc1cc(Nc2nccn3c(-c4ccc(OC(F)F)cc4)cnc23)ccc1C(=O)N1CCN(C(=O)C2C3CCC2CNC3)CC1 (stereo not drawn) [Example 488, [4-(3-azabicyclo[3.2.1]octane-8-carbonyl)piperazin-1-yl]-[4-[[3-[4-(difluoromethoxy)phenyl]imi-dazo[1,2-a]pyrazin-8-yl]amino]-2-methylphenyl]methanone; hy-drochloride]",240
14,"Cc1cc(Nc2nccn3c(-c4ccc(OC(F)F)cc4)cnc23)ccc1C(=O)N1CCN(C(=O)C2(O)CCNCC2)CC1 [Example 490, [4-[[3-[4-(difluoromethoxy)phenyl]imi-dazo[1,2-a]pyrazin-8-yl]amino]-2-methylphenyl]-[4-(4-hydroxypiperidine-4-carbonyl)piperazin-1-yl]methanone; hydrochloride]",280
15,"Cc1cc(Nc2nccn3c(-c4ccc(OC(F)F)cc4)cnc23)ccc1C(=O)N1CCN(C(=O)N[C@@H](C)CN)CC1 [Example 491, N-[(2S)-1-aminopropan-2-yl]-4-[4-[[3-[4-(difluoromethoxy)phenyl]imi-dazo[1,2-a]pyrazin-8-yl]amino]-2-methylbenzoyl]piperazine-1-carboxamide]",300
16,"Cc1cc(Nc2nccn3c(-c4ccc(OC(F)F)cc4)cnc23)ccc1C(=O)N1CCN(C(=O)NCC2(O)CNC2)CC1 [Example 493, 4-[4-[[3-[4-(difluoromethoxy)phenyl]imi-dazo[1,2-a]pyrazin-8-yl]amino]-2-methylbenzoyl]-N-[(3-hydroxyazetidin-3-yl)methyl]piperazine-1-carboxamide; formic acid]",310
17,"CCc1cc(Nc2nccn3c(-c4ccc(OC)c(F)c4F)cnc23)ccc1C(=O)N1CCN(C(=O)C2CCNCC2)CC1 [Example 494, [4-[[3-(2,3-difluoro-4-methoxyphenyl)imidazo[1,2-a]pyrazin-8-yl]amino]-2-ethylphenyl]-[4-(piperidine-4-carbonyl)piperazin-1-yl]methanone; hydrochloride]",320
18,"Cc1cc(Nc2nccn3c(-c4ccc(OC(F)F)cc4)cnc23)ccc1C(=O)N1CCN(C(=O)[C@H]2CCNC2)CC1 [Example 495, [4-[[3-[4-(difluoromethoxy)phenyl]imi-dazo[1,2-a]pyrazin-8-yl]amino]-2-methylphenyl]-[4-[(3S)-pyrrolidine-3-carbonyl]piperazin-1-yl]methanone; hydrochloride]",320

# Same assay, conditions: read-out: ATCC17978 IC90; 90% growth inhibitory concentration, Acinetobacter baumannii ATCC17978, Iso-Sensitest broth, OD 600 nm over 16 h; hydrochloride
row,SMILES,IC90 [nM]
1,"Cc1cc(Nc2nccn3c(-c4ccc(OC(F)F)cc4)cnc23)ccc1C(=O)N1CCN(C(=O)C2(F)CCNCC2)CC1 [Example 487, [4-[[3-[4-(difluoromethoxy)phenyl]imi-dazo[1,2-a]pyrazin-8-yl]amino]-2-methylphenyl]-[4-(4-fluoropiperidine-4-carbonyl)piperazin-1-yl]methanone; hydrochloride]",220
